Experiments:
[1] = test system: Friend erythroleukemia cells; test: Friend cell differentiation; format: cell-based
Text: It is of note however that MIBG acts at a point in the differentiation pathway that is distinct from 3-aminobenzamide.

H4IIE cells = test: lactate dehydrogenase (LDH) release toxicity assay; format: cell-based; conditions: 96 hours; FIG. 5
Procedure: To address the issue of MIBG toxicity, lactate dehydrogenase (LDH) release was measured after incubation with MIBG or MIBA. Quiescent H4IIE cells were prepared in 96-well dishes and treated with various concentrations of either MIBG or MIBA for 96 hours. To quantify the release of LDH from the cells, which only occurs if the cells are damaged or killed by the treatment, 100 μl of culture medium was transferred to a fresh dish. To this was added 100 μl of dye/catalyst mixture (Boehringer Mannheim cytotoxicity detection kitTM), and the samples were subsequently incubated for 30 minutes at 37° C. Absorbance of the solution was monitored at 490 nm. The colour intensity indicates the relative LDH content in the test samples. […] As a consequence, it is speculated that changes in LDH release may be coupled to non-toxic and reversible alterations in mitochondrial metabolism or membrane integrity as a result of MIBG treatment.

[2] = test system: porcine coronary arteries; test: coronary artery organ culture after balloon angioplasty (neointimal index); conditions: 25 μM in culture media over 14 days; FIG. 10
Text: Although smooth muscle cell cultures can be used to determine the ability of a compound to inhibit proliferation, these cells are not good indicators of a compound's ability to prevent restenosis. This statement stems from the fact that several processes, including cell migration, proliferation and synthesis of ECM degrading enzymes, must be coordinately activated in order for restenosis to occur. A novel organ culture system has therefore been developed in order to test the effectiveness of MIBG and other compounds at preventing restenosis (Wilson et al, 1999, Cardiac Res 42: 761-772). In brief, hearts are transported from the abattoir to the laboratory on ice. The left descending coronary artery is exposed and a balloon catheter is inserted past the first bifurcation. The balloon is inflated, and after 1 minute is deflated and withdrawn. The damaged region (approximately 20 mm in length) is excised, cut into 4 pieces of 5 mm and each piece is placed into an individual well of a culture dish. These segments can be maintained in media containing 20% serum for up to 21 days. Upon harvest of the tissue, typically after 14 days, the vessel segments are placed into resin for histological analysis. Sections are prepared from vessel segments after removal of the first 1.5 mm. […] This file is imported into SigmaScan™, and staining in the areas of the intimal and medial layers quantified. […]

L1210 = conditions: non-neuronal cell line L1210; cited from earlier work
H4IIE hepatoma cells = test: DNA synthesis (3H-thymidine incorporation) in H4IIE cells; format: cell-based
Procedure: Incorporation of uridine or thymidine was used to define the change in rate of […] synthesis, respectively, in response to a mitogen such as insulin. Specifically, quiescent H4IIE cells were prepared by placing the cultures (in 24-well dishes) into serum-free a-minimal essential medium for 3 days. It is of note that the normal growth media for H4IIE cells is α-MEM containing 10% fetal bovine serum (FBS). After reaching quiescence, the cells were stimulated with 1 μM insulin and incubated for either 6 hours or 24 hours in the presence of 1 μCi/ml ^3H-uridine or ^3H-thymidine, respectively. Cells were subsequently lysed with detergent and the nucleic acids precipitated with 5% trichloroacetic acid. The precipitated material was collected on glass fibre filters and the radioactive content measured by scintillation counting. […] Furthermore, while complete inhibition of DNA synthesis by MIBG is obtained at approximately 20 μM, higher concentrations decrease basal DNA synthesis below control levels.

c-fos = c-fos gene expression by RT-PCR in human smooth muscle cells; format: cell-based; conditions: 25 μM MIBG pretreatment (10 minutes), then IGF-1 stimulated 15 minutes
smooth muscle cells [3] = conditions: cited from earlier work
L6 myoblasts = test: L6 myoblast differentiation; format: cell-based; conditions: 25 μM; 2.5% horse serum; 4 days; FIG. 32
smooth muscle cells [4] = test: Boyden chamber smooth muscle cell migration in response to Angiotensin II; format: cell-based; conditions: 20 μM; 10 μM Angiotensin II in lower compartment; FIG. 17
Procedure: Specifically, smooth muscle cells were seeded into the upper chamber of a Boyden chamber, which consists of two compartments that are separated by a permeable membrane. […] Specifically, migration to the lower compartment was determined by counting cells on the underside of the membrane. Data are presented as means ± standard error for six independent determinations.

[5] = test system: porcine radial artery to coronary artery anastomoses; test: bypass graft organ culture, PCNA expression; conditions: 25 μM, 14 days in culture; FIG. 18
Procedure: Analogous to the organ culture model described above, a model of a radial artery to coronary artery bypass graft has been developed. It is of note that the construction of this anastomosis is identical to that used clinically in a bypass operation. Specifically, porcine radial artery to coronary artery anstomoses were conducted and placed into culture for 14 days. Control segments included coronary artery dissected and immediately frozen or incubated for 14 days before freezing. Alternatively, the anastomoses were incubated in the presence of 25 μM MIBG. PCNA (proliferating cell nuclear antigen) was detected by immunostaining after cryosectioning of the vessels. Nuclei were visualized with Hoescht […]. The numbers of nuclei and PCNA positive nuclei were determined and used to quantify the proliferation index.

[6] = test system: smooth muscle cells derived from human arterial conduits; test: DNA synthesis and cytotoxicity in human smooth muscle cells; conditions: FIG. 26A

meta-iodobenzylguanidine [MIBG]
effect on Friend cell differentiation [1]: inhibits Friend cell differentiation following commitment | concentration at which increased LDH release is detectable (H4IIE cells): 50 µM | neointimal index [2]: effectively reduces the neointimal index to control values | concentration in cells relative to the surrounding medium (L1210): 15 times | concentration for complete inhibition of DNA synthesis (H4IIE hepatoma cells; 1 μM insulin, 24 hours, FIG. 2): approximately 20 μM | inhibition of DNA synthesis (thymidine incorporation) (H4IIE hepatoma cells; H4IIE cells): inhibits DNA synthesis | c-fos mRNA levels (c-fos): equivalent to or below basal | DNA synthesis (thymidine uptake) (smooth muscle cells [3]): had no effect on DNA synthesis | cell number (smooth muscle cells [3]): prevents an increase in cell number | production of collagen type I (smooth muscle cells [3]): decreased the production of collagen type I | effect on L6 myoblast differentiation (L6 myoblasts): inhibits differentiation of L6 myoblasts at an early stage | smooth muscle cell migration (smooth muscle cells [4]): inhibited smooth muscle cell migration | increase in PCNA expression compared to segment examined immediately after dissection [5]: < 10 fold | DNA synthesis and cytotoxicity compared with porcine cells [6]: comparable effects in both porcine and human tissues

From US6544541B1, “Devices and compounds for treating arterial restenosis” (Cardiovascular Solutions, Inc., priority 1999, dated 2003)
